The record followed here is patent publication US8431376B2, “Bacterial replication systems and methods” (priority 2004, dated 2013).

Molecules are shown by their SMILES.

Type in all cases: biochemical
The target in assay [1] is Y. pestis DNA polymerase III holoenzyme (Yersinia pestis, UniProt Q0WHY6). The settings on record: read-out: IC50 Y. pestis.
Assay [2] addresses S. pyogenes DNA polymerase holoenzyme (PolC, tau-complex, β) (Streptococcus pyogenes, UniProt Q8NZB5). The following applies: read-out: IC50 S. pyog.
The target of assay [3] is Y. pestis DNA polymerase III holoenzyme.
Assay [4] concerns the target Pol III holoenzyme. The settings on record: read-out: low μM activity as Pol III holoenzyme inhibitor.

Chain of S. pyogenes DNA polymerase holoenzyme (PolC, tau-complex, β) (Q8NZB5 whole entry): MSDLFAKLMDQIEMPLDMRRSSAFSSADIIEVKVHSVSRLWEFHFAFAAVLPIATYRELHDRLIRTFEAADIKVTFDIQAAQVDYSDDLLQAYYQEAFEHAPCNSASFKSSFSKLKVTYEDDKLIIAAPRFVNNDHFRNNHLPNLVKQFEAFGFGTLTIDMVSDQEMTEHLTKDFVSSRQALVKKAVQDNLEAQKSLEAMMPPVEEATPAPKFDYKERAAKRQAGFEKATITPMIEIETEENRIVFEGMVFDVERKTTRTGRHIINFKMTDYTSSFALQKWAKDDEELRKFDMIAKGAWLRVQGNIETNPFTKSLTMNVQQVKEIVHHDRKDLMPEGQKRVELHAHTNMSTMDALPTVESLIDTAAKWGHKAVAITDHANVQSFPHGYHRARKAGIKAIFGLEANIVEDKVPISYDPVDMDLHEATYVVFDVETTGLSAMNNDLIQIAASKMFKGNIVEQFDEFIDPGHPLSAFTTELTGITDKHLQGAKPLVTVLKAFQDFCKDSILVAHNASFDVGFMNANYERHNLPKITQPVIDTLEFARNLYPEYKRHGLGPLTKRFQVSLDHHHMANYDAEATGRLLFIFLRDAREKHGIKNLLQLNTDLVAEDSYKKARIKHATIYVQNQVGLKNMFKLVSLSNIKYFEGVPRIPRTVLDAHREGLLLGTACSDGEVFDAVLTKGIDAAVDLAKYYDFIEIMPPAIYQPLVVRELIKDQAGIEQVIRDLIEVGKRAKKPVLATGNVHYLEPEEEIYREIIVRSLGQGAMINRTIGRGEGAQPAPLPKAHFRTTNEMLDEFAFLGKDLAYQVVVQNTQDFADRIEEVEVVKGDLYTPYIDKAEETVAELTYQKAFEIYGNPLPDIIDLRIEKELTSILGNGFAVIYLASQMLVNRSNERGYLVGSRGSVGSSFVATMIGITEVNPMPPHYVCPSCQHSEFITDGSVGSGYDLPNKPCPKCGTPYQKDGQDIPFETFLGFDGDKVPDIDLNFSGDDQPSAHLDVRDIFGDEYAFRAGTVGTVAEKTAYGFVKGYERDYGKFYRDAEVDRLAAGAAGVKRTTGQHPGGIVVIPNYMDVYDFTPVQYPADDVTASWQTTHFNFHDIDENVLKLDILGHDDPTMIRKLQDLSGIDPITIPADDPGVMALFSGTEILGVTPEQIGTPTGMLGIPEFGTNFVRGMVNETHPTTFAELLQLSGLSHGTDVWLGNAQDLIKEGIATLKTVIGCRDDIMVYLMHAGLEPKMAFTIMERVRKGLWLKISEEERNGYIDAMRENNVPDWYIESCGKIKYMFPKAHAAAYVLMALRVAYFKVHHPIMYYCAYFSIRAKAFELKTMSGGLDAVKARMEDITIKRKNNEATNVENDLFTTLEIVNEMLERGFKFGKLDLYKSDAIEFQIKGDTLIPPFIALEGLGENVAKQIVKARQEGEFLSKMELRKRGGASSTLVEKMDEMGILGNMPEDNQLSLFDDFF
Chain of S. pyogenes DNA polymerase holoenzyme (PolC, tau-complex, β) (Q7DAL6 1-556 partner): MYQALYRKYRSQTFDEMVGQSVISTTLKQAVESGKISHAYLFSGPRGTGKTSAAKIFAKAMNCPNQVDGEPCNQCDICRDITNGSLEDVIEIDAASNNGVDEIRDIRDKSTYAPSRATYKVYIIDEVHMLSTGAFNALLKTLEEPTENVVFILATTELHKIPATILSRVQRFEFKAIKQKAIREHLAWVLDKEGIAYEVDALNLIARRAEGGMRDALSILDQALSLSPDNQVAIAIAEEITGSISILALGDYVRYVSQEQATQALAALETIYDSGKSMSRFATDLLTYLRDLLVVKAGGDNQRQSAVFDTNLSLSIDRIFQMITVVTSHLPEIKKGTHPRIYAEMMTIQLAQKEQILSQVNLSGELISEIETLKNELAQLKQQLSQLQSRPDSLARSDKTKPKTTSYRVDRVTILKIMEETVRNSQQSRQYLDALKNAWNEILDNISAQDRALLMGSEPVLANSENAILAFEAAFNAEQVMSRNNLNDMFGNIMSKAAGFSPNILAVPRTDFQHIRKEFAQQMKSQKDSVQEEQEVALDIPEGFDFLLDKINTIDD
Chain of S. pyogenes DNA polymerase holoenzyme (PolC, tau-complex, β) (Q7DAL5 1-346 partner): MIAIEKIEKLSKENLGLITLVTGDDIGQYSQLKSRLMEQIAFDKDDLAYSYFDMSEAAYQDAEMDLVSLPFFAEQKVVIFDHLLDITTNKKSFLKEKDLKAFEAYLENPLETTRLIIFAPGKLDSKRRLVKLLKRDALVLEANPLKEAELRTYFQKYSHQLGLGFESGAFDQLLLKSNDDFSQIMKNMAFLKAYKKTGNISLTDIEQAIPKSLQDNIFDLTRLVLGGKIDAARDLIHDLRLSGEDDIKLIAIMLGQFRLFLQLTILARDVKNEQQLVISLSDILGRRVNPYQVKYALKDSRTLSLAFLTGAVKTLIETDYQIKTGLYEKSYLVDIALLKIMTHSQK
Chain of S. pyogenes DNA polymerase holoenzyme (PolC, tau-complex, β) (Q9A209 1-378 partner): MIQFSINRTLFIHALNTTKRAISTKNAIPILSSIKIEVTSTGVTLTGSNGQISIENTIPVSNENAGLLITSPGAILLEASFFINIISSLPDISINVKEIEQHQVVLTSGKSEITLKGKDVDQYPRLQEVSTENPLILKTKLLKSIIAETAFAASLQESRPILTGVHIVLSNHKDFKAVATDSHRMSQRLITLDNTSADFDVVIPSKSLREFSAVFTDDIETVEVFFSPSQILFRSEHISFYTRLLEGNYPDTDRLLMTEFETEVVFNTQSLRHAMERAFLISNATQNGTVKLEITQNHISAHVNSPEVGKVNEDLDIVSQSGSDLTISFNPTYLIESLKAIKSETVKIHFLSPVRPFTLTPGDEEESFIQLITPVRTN

Turning to `COc1c(Br)cc(Br)cc1/C=C1\SC(=S)NC1=O`, the IC50 in assay [1] was 31.4 µM; in assay [2], 18.1 µM.

Regarding `CCOc1c(Br)cc(Br)cc1/C=C1\SC(=S)NC1=O`, the IC50 was 22.3 µM in assay [1] and 13.5 µM in assay [2].

For `CC(C)Oc1c(Br)cc(Br)cc1/C=C1\SC(=S)NC1=O`, the IC50 in assay [1] amounted to 18.8 µM; in assay [2], 7.11 µM.

With `O=C1NC(=S)S/C1=C\c1cc(Br)cc(Br)c1O`, the IC50 in assay [1] and in assay [2] was greater than 320 µM each time.

`O=C1NC(=S)S/C1=C\c1cc(Br)cc(Br)c1`: the results for the IC50 in assay [1] and in assay [2] were 22 µM and 14.2 µM, respectively.

Turning to `C/N=C1\NC(=O)/C(=C/c2cc(Br)cc(Br)c2OC)S1`, the IC50 in assay [1] and in assay [2] was greater than 320 µM in each case.

Regarding `O=C1NC(=S)S/C1=C\c1cc(Br)ccc1F`, the IC50 in assay [1] was found to be 95.9 µM; in assay [2], 64.5 µM.

In the case of `O=C1NC(=S)S/C1=C\c1ccc(Br)cc1F`, the IC50 is 28.5 µM in assay [1] and 60 µM in assay [2].

On to `O=C1NC(=S)S/C1=C\c1cc(F)c(F)cc1F`, for which the IC50 in assay [1] was determined as 203 µM; in assay [2] it was 121 µM.

Take `O=C1NC(=S)S/C1=C\c1cccc(Cl)c1F`: the IC50 in assay [1] was determined as 123 µM; in assay [2], 79.9 µM.

For `COc1cccc(/C=C2\SC(=S)NC2=O)c1F`, the figures for the IC50 in assay [1] and in assay [2] were 54.1 µM and 277 µM, respectively.

In the case of `COc1cccc(OC)c1/C=C1\SC(=S)NC1=O`, the values for the IC50 in assay [1] and in assay [2] were 186 µM and greater than 320 µM, respectively.

Turning to `Cc1cccc(C)c1/C=C1\SC(=S)NC1=O`, the IC50 in assay [1] is 302 µM; in assay [2] it was 271 µM.

As to `O=C1NC(=S)S/C1=C\c1c(Cl)cccc1Cl`, the IC50 came to 162 µM in assay [1] and 102 µM in assay [2].

For the compound `O=C1NC(=S)S/C1=C\c1cc([N+](=O)[O-])ccc1Sc1ccc(Cl)cc1`, the IC50 in assay [1] stood at 4.62 µM; in assay [2] it was 3.53 µM.

For `CC(C)(C)c1ccc(Oc2ccc([N+](=O)[O-])cc2/C=C2\SC(=S)NC2=O)cc1`, the figures for the IC50 in assay [1] and in assay [2] were 7.03 µM and 4.38 µM, respectively.

Take `O=C1NC(=S)S/C1=C\c1cc([N+](=O)[O-])ccc1OC(F)F`: the IC50 worked out at 52.9 µM in assay [1] and 96 µM in assay [2].

Regarding `O=C1NC(=S)S/C1=C\c1cc([N+](=O)[O-])ccc1SC1CCCCC1`, the IC50 in assay [1] was determined as 9.94 µM; in assay [2] it was 8.73 µM.

For `COc1ccc([N+](=O)[O-])cc1/C=C1\SC(=S)NC1=O`, the IC50 in assay [1] stood at 126 µM; in assay [2], 89 µM.

In the case of `COc1ccc(/C=C2\SC(=S)NC2=O)cc1[N+](=O)[O-]`, the IC50 in assay [1] is 48.9 µM; in assay [2] it was greater than 320 µM.

Consider `O=C1NC(=S)S/C1=C\c1ccc(N2CCOCC2)c([N+](=O)[O-])c1`, for which the IC50 in assay [1] and in assay [2] was greater than 320 µM throughout.

Take `O=C1NC(=S)S/C1=C\c1ccc(Cl)cc1[N+](=O)[O-]`: the IC50 in assay [1] is 63.9 µM; in assay [2], 133 µM.

As to `O=C1NC(=S)S/C1=C\c1cc(Cl)ccc1[N+](=O)[O-]`, the IC50 in assay [1] worked out at 267 µM; in assay [2] it was 163 µM.

Take `COc1cccc(F)c1/C=C1\SC(=S)NC1=O`: the IC50 in assay [3] was 195 µM; in assay [2], greater than 320 µM.

Take `COc1ccc(F)c(/C=C2\SC(=S)NC2=O)c1`: the IC50 turned out to be 179 µM in assay [1] and 193 µM in assay [2].

For the compound `O=C1NC(=S)S/C1=C\c1ccc(F)c(F)c1`, the IC50 was 241 µM in assay [1] and 181 µM in assay [2].

As for `O=C1NC(=S)S/C1=C\c1cc(F)ccc1F`, in assay [2], the IC50 was found to be 211 µM.

Turning to `O=C1NC(=S)S/C1=C\c1c(F)cccc1F`, the IC50 is 196 µM in assay [1] and greater than 320 µM in assay [2].

Turning to `O=C1NC(=S)S/C1=C\c1cccc(F)c1F`, the IC50 in assay [1] is 212 µM; in assay [2], 214 µM.

For `O=C1NC(=S)S/C1=C\c1ccc(F)cc1F`, the IC50 in assay [1] is 315 µM; in assay [2], 288 µM.

Consider `O=C1NC(=S)S/C1=C\c1cc(C(F)(F)F)ccc1F`, for which the IC50 amounted to 108 µM in assay [1] and 45.1 µM in assay [2].

`O=C1NC(=S)S/C1=C\c1cccc(C(F)(F)F)c1F`: the IC50 in assay [1] was 166 µM; in assay [2], 67.9 µM.

Consider `COc1cc(F)c(/C=C2\SC(=S)NC2=O)cc1OC`, for which the IC50 in assay [1] and in assay [2] was greater than 320 µM in each case.

`C/N=C1\NC(=O)/C(=C/c2ccc(Cl)c(Cl)c2)S1`: the IC50 in assay [1] was 286 µM; in assay [2] it was 112 µM.

In the case of `N=C1NC(=O)/C(=C/c2ccc(Cl)c(Cl)c2)S1`, the figures for the IC50 in assay [1] and in assay [2] were 116 µM and 145 µM, respectively.

Turning to `O=C1NC(=S)S/C1=C\c1cc([N+](=O)[O-])ccc1N1CCCCC1`, the IC50 in assay [1] was 41.2 µM; in assay [2], 23.7 µM.

As for `O=C1NC(=S)S/C1=C\c1cc([N+](=O)[O-])ccc1N1CCOCC1`, the IC50 in assay [1] came to 108 µM; in assay [2], 192 µM.

Regarding `O=C1NC(=S)S/C1=C\c1cc([N+](=O)[O-])ccc1F`, the values for the IC50 in assay [1] and in assay [2] were 101 µM and 89.7 µM, respectively.

On to `O=C1NC(=S)S/C1=C\c1cc([N+](=O)[O-])ccc1Cl`, for which the IC50 in assay [1] stood at 88.9 µM; in assay [2], 81.6 µM.

Consider `O=C1NC(=S)S/C1=C\c1ccc(Cl)c([N+](=O)[O-])c1`, for which the IC50 in assay [1] worked out at 27.2 µM; in assay [2] it was 24.2 µM.

`O=C1NC(=S)S/C1=C\c1cc2c(cc1[N+](=O)[O-])OCO2`: the figures for the IC50 in assay [1] and in assay [2] were 144 µM and 98.3 µM, respectively.

Turning to `COc1cc(/C=C2\SC(=S)NC2=O)c([N+](=O)[O-])cc1OC`, the IC50 in assay [1] and in assay [2] was greater than 320 µM in each case.

With `CN(C)c1ccc(/C=C2\SC(=S)NC2=O)c([NH+]([O-])O)c1` (stereo not shown), the results for the IC50 in assay [1] and in assay [2] were 22.6 µM and 44.4 µM, respectively.

With `O=C1NC(=S)S/C1=C\c1ccc([N+](=O)[O-])c(O)c1`, in assay [1], the IC50 was found to be 162 µM.

On to `O=C1NC(=S)SC1=Cc1cc([N+](=O)[O-])ccc1Sc1ccc(Cl)cc1` [5-[2-(4-Chloro-phenylsulfanyl)-5-nitro-benzylidene]-2-thioxo-thiazolidin-4-one], for which the IC50 in assay [4] was 3 to 7 µM.

For `O=C1NC(=S)S/C1=C\c1ccc(Cl)c(Cl)c1` [drawing 34], the figures for the IC50 in assay [1] and in assay [2] were 61.6 µM and 37.2 µM, respectively.

`O=C1NC(=S)S/C1=C\c1ccc(Cl)c(Cl)c1` [drawing 37]: the IC50 in assay [1] and in assay [2] was greater than 320 µM each time.
